IC50 data for 18 molecules are collected here from patent US20170369470A1, “Cyclic Compounds and Uses Thereof” (Karyopharm Therapeutics Inc., priority 2014, published 2017).

The structures appear in SMILES notation.

Common to all, as to format: cell-based
For test [1], the system named is MS751 cells. Put plainly: MTT cell proliferation assay, MS751 cells. The conditions noted are these: MS751 cells (human cervix squamous cell carcinoma metastasis); incubation approximately 64-72 hours; read-out: MTT Assay IC50 MS 751. On the procedure: (§1) The MTT cell proliferation assay was used to study the cytotoxic properties of the compounds. The assay was performed according to the method described by Roche Molecular Biochemicals, with minor modifications. The assay is based on the cleavage of the tetrazolium salt, MTT, in the presence of an electron-coupling reagent. The water-insoluble formazan salt produced must be solubilized in an additional step. Cells grown in a 96-well tissue culture plate were incubated with the MTT solution for approximately 4 hours. After this incubation period, a water-insoluble formazan dye formed. After solubilization, the formazan dye was quantitated using a scanning multi-well spectrophotometer (ELISA reader). […] The cells were seeded at 5,000-10,000 cells in each well of 96-well plate in 100 μL of fresh culture medium and were allowed to attach overnight. The stock solutions of the compounds were diluted in 100 μL cell culture medium to obtain eight concentrations of each test compound, ranging from 1 nM to 30 μM. […] All optical densities were measured at 490 nm using a Vmax Kinetic Microplate Reader (Molecular Devices). In most cases, the assay was performed in duplicate and the results were presented as a mean percent inhibition to the negative control±SE. The following formula was used to calculate the percent of inhibition: Inhibition (%)=(1−(ODo/OD))×100.
(§2) The compounds were tested against MS751, Z138 and 3T3 cells. The MS751 cell line is derived from a metastasis to lymph node of human cervix from a patient diagnosed with squameous cell carcinoma of the cervix. The Z138 cell line is a mature B-cell acute lymphoblastic leukemia cell line derived from a patient with chronic lumphocytic leukemia. 3T3 cells are standard fibroblast cells; they were originally isolated from Swiss mouse embryo tissue.
In general terms: Formazan colour is commonly taken as a measure of viable cells.

The test system of test [2] is Z138 cells. In words: MTT cell proliferation assay, Z138 cells. The settings on record: Homo sapiens, Z-138; Z138 cells (mantle cell lymphoma line); incubation approximately 64-72 hours. On the procedure:
as §1, §2

Test [3] deals with 3T3 cells. In words: MTT cell proliferation assay, 3T3 cells. The settings on record: NIH3T3; 3T3 fibroblast cells (Swiss mouse embryo); incubation approximately 64-72 hours. The protocol:
as §1, §2

One may read the IC50 as the concentration that inhibits the measured activity by half. As to `Nc1ccc(/C=C/C(=O)NCc2cc3cc(-c4ccc(C(=O)N5CCC(F)(F)CC5)cc4)cc(C(F)(F)F)c3s2)cn1` [compound 518, (E)-3-(6-aminopyridin-3-yl)-N-((5-(4-(4,4-difluoropiperidine-1-carbonyl)phenyl)-7-(trifluoromethyl)benzo[b]thiophen-2-yl)methyl)acrylamide], the figures for the IC50 in test [1], in test [2] and in test [3] were 1 to 5 µM, 1 to 5 µM and above 10 µM, respectively.

For the molecule `Nc1ccc(/C=C/C(=O)NCc2cc3cc(-c4ccc(C(=O)N5CC6(COC6)C5)cc4)cc(C(F)(F)F)c3s2)cn1` [compound 519, (E)-N-((5-(4-(2-oxa-6-azaspiro[3.3]heptane-6-carbonyl)phenyl)-7-(trifluoromethyl)benzo[b]thiophen-2-yl)methyl)-3-(6-aminopyridin-3-yl)acrylamide], the IC50 in test [1] was below 1 µM; in test [2] it was below 1 µM; in test [3] it was above 10 µM.

`Nc1ccc(/C=C/C(=O)NCc2cc3cc(-c4ccc(C(=O)N5CCC(F)(F)C5)cc4)cc(C(F)(F)F)c3s2)cn1` [compound 520, (E)-3-(6-aminopyridin-3-yl)-N-((5-(4-(3,3-difluoropyrrolidine-1-carbonyl)phenyl)-7-(trifluoromethyl)benzo[b]thiophen-2-yl)methyl)acrylamide]: the 50% inhibitory concentration (IC50) in test [1] is 5 to 10 µM; in test [2] it was 1 to 5 µM; in test [3] it was above 10 µM.

`Nc1ccc(/C=C/C(=O)NCc2cc3cc(-c4ccc(C(=O)N5CCC(O)(C(F)(F)F)CC5)cc4)cc(C(F)(F)F)c3s2)cn1` [compound 521, (E)-3-(6-aminopyridin-3-yl)-N-((5-(4-(4-hydroxy-4-(trifluoromethyl)piperidine-1-carbonyl)phenyl)-7-(trifluoromethyl)benzo[b]thiophen-2-yl)methyl)acrylamide]: the figures for the IC50 in test [1], in test [2] and in test [3] were 1 to 5 µM, 1 to 5 µM and above 10 µM, respectively.

In the case of `CC1(F)CCN(C(=O)c2ccc(-c3cc(C(F)(F)F)c4sc(CNC(=O)/C=C/c5ccc(N)nc5)cc4c3)cc2)C1` (stereo not drawn) [compound 522, (E)-3-(6-aminopyridin-3-yl)-N-((5-(4-(3-fluoro-3-methylpyrrolidine-1-carbonyl)phenyl)-7-(trifluoromethyl)benzo[b]thiophen-2-yl)methyl)acrylamide], the IC50 in test [1] is 5 to 10 µM; in test [2], 1 to 5 µM; in test [3], above 10 µM.

Regarding `CC1(C)COCCN1C(=O)c1ccc(-c2cc(C(F)(F)F)c3sc(CNC(=O)/C=C/c4ccc(N)nc4)cc3c2)cc1` [compound 523, (E)-3-(6-aminopyridin-3-yl)-N-((5-(4-(3,3-dimethylmorpholine-4-carbonyl)phenyl)-7-(trifluoromethyl)benzo[b]thiophen-2-yl)methyl)acrylamide], the IC50 in test [1] was 1 to 5 µM; in test [2], 1 to 5 µM; in test [3], above 10 µM.

Take `Nc1ccc(/C=C/C(=O)NCc2cc3cc(-c4ccc(C(=O)N5CC(F)(F)C5)cc4)cc(C(F)(F)F)c3s2)cn1` [compound 524, (E)-3-(6-aminopyridin-3-yl)-N-((5-(4-(3,3-difluoroazetidine-1-carbonyl)phenyl)-7-(trifluoromethyl)benzo[b]thiophen-2-yl)methyl)acrylamide]: the IC50 in test [1], in test [2] and in test [3] was above 10 µM each time.

For the molecule `Nc1ccc(/C=C/C(=O)NCc2cc3cc(-c4ccc(C(=O)N5CC[C@H](F)C5)cc4)cc(C(F)(F)F)c3s2)cn1` [compound 525, (S,E)-3-(6-aminopyridin-3-yl)-N-((5-(4-(3-fluoropyrrolidine-1-carbonyl)phenyl)-7-(trifluoromethyl)benzo[b]thiophen-2-yl)methyl)acrylamide], the IC50 in test [1] was 1 to 5 µM; in test [2], 1 to 5 µM; in test [3], above 10 µM.

With `CC1(C)CN(C(=O)c2ccc(-c3cc(C(F)(F)F)c4sc(CNC(=O)/C=C/c5ccc(N)nc5)cc4c3)cc2)CCO1` [compound 526, (E)-3-(6-aminopyridin-3-yl)-N-((5-(4-(2,2-dimethylmorpholine-4-carbonyl)phenyl)-7-(trifluoromethyl)benzo[b]thiophen-2-yl)methyl)acrylamide], the IC50 in test [1] was 1 to 5 µM; in test [2], below 1 µM; in test [3], above 10 µM.

Consider `Nc1ccc(/C=C/C(=O)NCc2cc3cc(-c4ccc(C(=O)N5CC6(C5)CC(F)(F)C6)cc4)cc(C(F)(F)F)c3s2)cn1` [compound 527, (E)-3-(6-aminopyridin-3-yl)-N-((5-(4-(6,6-difluoro-2-azaspiro[3.3]heptane-2-carbonyl)phenyl)-7-(trifluoromethyl)benzo[b]thiophen-2-yl)methyl)acrylamide], for which the IC50 in test [1] was 1 to 5 µM; in test [2] it was 1 to 5 µM; in test [3], above 10 µM.

Take `CC1(O)CCN(C(=O)c2ccc(-c3cc(C(F)(F)F)c4sc(CNC(=O)/C=C/c5ccc(N)nc5)cc4c3)cc2)CC1` [compound 528, (E)-3-(6-aminopyridin-3-yl)-N-((5-(4-(4-hydroxy-4-methylpiperidine-1-carbonyl)phenyl)-7-(trifluoromethyl)benzo[b]thiophen-2-yl)methyl)acrylamide]: the IC50 in test [1] is 1 to 5 µM; in test [2] it was below 1 µM; in test [3], above 10 µM.

Consider `Nc1ccc(/C=C/C(=O)NCc2cc3cc(-c4ccc(C(=O)N5CCC(F)CC5)cc4)cc(C(F)(F)F)c3s2)cn1` [compound 529, (E)-3-(6-aminopyridin-3-yl)-N-((5-(4-(4-fluoropiperidine-1-carbonyl)phenyl)-7-(trifluoromethyl)benzo[b]thiophen-2-yl)methyl)acrylamide], for which the IC50 in test [1], in test [2] and in test [3] was above 10 µM throughout.

As to `Nc1ccc(/C=C/C(=O)NCc2nc3cc(-c4ccc(C(=O)N5CCC(F)(F)CC5)cn4)cc(C(F)(F)F)c3[nH]2)cn1` [compound 530, (E)-3-(6-aminopyridin-3-yl)-N-((5-(5-(4,4-difluoropiperidine-1-carbonyl)pyridin-2-yl)-7-(trifluoromethyl)-1H-benzo[d]imidazol-2-yl)methyl)acrylamide], the IC50 in test [1], in test [2] and in test [3] was above 10 µM each time.

Consider `Cn1c(CNC(=O)/C=C/c2ccc(N)nc2)nc2c(C(F)(F)F)cc(-c3ccc(C(=O)N4CCC(F)(F)CC4)cn3)cc21` [compound 531, (E)-3-(6-aminopyridin-3-yl)-N-((6-(5-(4,4-difluoropiperidine-1-carbonyl)pyridin-2-yl)-1-methyl-4-(trifluoromethyl)-1H-benzo[d]imidazol-2-yl)methyl)acrylamide], for which the IC50 in test [1], in test [2] and in test [3] was above 10 µM each time.

As for `Nc1ccc(/C=C/C(=O)NCc2nc3cc(-c4ccc(C(=O)N5CCC(F)(F)CC5)cn4)cc(C(F)(F)F)c3s2)cn1` [compound 532, (E)-3-(6-aminopyridin-3-yl)-N-((5-(5-(4,4-difluoropiperidine-1-carbonyl)pyridin-2-yl)-7-(trifluoromethyl)benzo[d]thiazol-2-yl)methyl)acrylamide], the IC50 was below 1 µM in test [1], below 1 µM in test [2] and above 10 µM in test [3].

As for `Nc1ccc(/C=C/C(=O)NCc2nc3cc(-c4ccc(C(=O)N5CCC(F)(F)CC5)cc4)cc(C(F)(F)F)c3s2)cn1` [compound 533, (E)-3-(6-aminopyridin-3-yl)-N-((5-(4-(4,4-difluoropiperidine-1-carbonyl)phenyl)-7-(trifluoromethyl)benzo[d]thiazol-2-yl)methyl)acrylamide], the results for the IC50 in test [1], in test [2] and in test [3] were below 1 µM, below 1 µM and above 10 µM, respectively.

Regarding `Nc1ccc(/C=C/C(=O)NCCc2cc3cc(-c4ccc(C(=O)N5CCC(F)(F)CC5)cn4)cc(C(F)(F)F)c3s2)cn1` [compound 534, (E)-3-(6-aminopyridin-3-yl)-N-(2-(5-(5-(4,4-difluoropiperidine-1-carbonyl)pyridin-2-yl)-7-(trifluoromethyl)benzo[b]thiophen-2-yl)ethyl)acrylamide], the IC50 in test [1], in test [2] and in test [3] was below 1 µM throughout.

On to `Nc1ccc(/C=C/C(=O)NCc2nc3cc(-c4ccc(C(=O)N5CCC(F)(F)CC5)cc4)cc(-c4ccc(F)cc4)c3s2)cn1` [compound 535, (E)-3-(6-aminopyridin-3-yl)-N-((5-(4-(4,4-difluoropiperidine-1-carbonyl)phenyl)-7-(4-fluorophenyl)benzo[d]thiazol-2-yl)methyl)acrylamide], for which the figures for the IC50 in test [1], in test [2] and in test [3] were 1 to 5 µM, 1 to 5 µM and above 10 µM, respectively.
